Source: ChEMBL document CHEMBL2440076, “New triarylpyrazoles as broad-spectrum anticancer agents: design, synthesis, and biological evaluation” (Eur J Med Chem, 2013)

Tests used:
Type in all cases: functional
[1] = tested on: SK-MEL-5; test: Growth inhibition of human SK-MEL-5 cells assessed as cell growth at 10^-7 M after 48 hrs by sulforhodamine B assay; conditions: SK-MEL-5, 48 h, read-out: Activity
[2] = tested on: M14; test: Growth inhibition of human M14 cells assessed as cell growth at 10^-6 M after 48 hrs by sulforhodamine B assay; conditions: M14, 48 h, read-out: Activity
[3] = tested on: NCI-H522; test: Growth inhibition of human NCI-H522 cells assessed as cell growth at 10^-4 M after 48 hrs by sulforhodamine B assay; conditions: NCI-H522, 48 h, read-out: Activity
[4] = tested on: NCI-H23; test: Growth inhibition of human NCI-H23 cells assessed as cell growth at 10^-5 M after 48 hrs by sulforhodamine B assay; conditions: NCI-H23, 48 h, read-out: Activity
[5] = tested on: NCI-H23; test: Growth inhibition of human NCI-H23 cells assessed as cell growth at 10^-6 M after 48 hrs by sulforhodamine B assay; conditions: NCI-H23, 48 h, read-out: Activity
[6] = tested on: HL-60(TB); test: Growth inhibition of human HL-60(TB) cells assessed as cell growth at 10^-8 M after 48 hrs by sulforhodamine B assay; conditions: HL-60, 48 h, read-out: Activity
[7] = tested on: HCT-15; test: Growth inhibition of human HCT15 cells assessed as cell growth at 10^-8 M after 48 hrs by sulforhodamine B assay; conditions: HCT-15, 48 h, read-out: Activity
[8] = tested on: NCI-H460; test: Growth inhibition of human NCI-H460 cells assessed as cell growth at 10^-5 M after 48 hrs by sulforhodamine B assay; conditions: NCI-H460, 48 h, read-out: Activity
[9] = tested on: OVCAR-4; test: Growth inhibition of human OVCAR4 cells assessed as cell growth at 10^-7 M after 48 hrs by sulforhodamine B assay; conditions: OVCAR-4, 48 h, read-out: Activity
[10] = tested on: MDA-MB-231; test: Growth inhibition of human MDA-MB-231 cells assessed as cell growth at 10^-7 M after 48 hrs by sulforhodamine B assay; conditions: MDA-MB-231, 48 h, read-out: Activity
[11] = tested on: PC-3; test: Growth inhibition of human PC3 cells assessed as cell growth at 10^-4 M after 48 hrs by sulforhodamine B assay; conditions: PC-3, 48 h, read-out: Activity
[12] = tested on: A498; test: Growth inhibition of human A498 cells assessed as cell growth at 10^-4 M after 48 hrs by sulforhodamine B assay; conditions: A498, 48 h, read-out: Activity
[13] = tested on: KM12; test: Growth inhibition of human KM12 cells assessed as cell growth at 10^-7 M after 48 hrs by sulforhodamine B assay; conditions: KM12, 48 h, read-out: Activity
[14] = tested on: MCF7; test: Growth inhibition of human MCF7 cells assessed as cell growth at 10^-6 M after 48 hrs by sulforhodamine B assay; conditions: MCF7, 48 h, read-out: Activity
[15] = tested on: LOX IMVI; test: Growth inhibition of human LOXIMVI cells assessed as cell growth at 10^-8 M after 48 hrs by sulforhodamine B assay; conditions: read-out: Activity
[16] = tested on: NCI-H23; test: Growth inhibition of human NCI-H23 cells assessed as cell growth at 10^-7 M after 48 hrs by sulforhodamine B assay; conditions: NCI-H23, 48 h, read-out: Activity
[17] = Growth inhibition of human Hs 578T cells assessed as cell growth at 10^-7 M after 48 hrs by sulforhodamine B assay; conditions: read-out: Activity
[18] = tested on: SW-620; test: Growth inhibition of human SW620 cells assessed as cell growth at 10^-7 M after 48 hrs by sulforhodamine B assay; conditions: SW-620, 48 h, read-out: Activity
[19] = tested on: UO-31; test: Growth inhibition of human UO31 cells assessed as cell growth at 10^-7 M after 48 hrs by sulforhodamine B assay; conditions: UO-31, 48 h, read-out: Activity
[20] = tested on: SF-539; test: Growth inhibition of human SF539 cells assessed as cell growth at 10^-7 M after 48 hrs by sulforhodamine B assay; conditions: SF-539, 48 h, read-out: Activity
[21] = tested on: HCT-116; test: Growth inhibition of human HCT116 cells assessed as cell growth at 10^-6 M after 48 hrs by sulforhodamine B assay; conditions: HCT-116, 48 h, read-out: Activity
[22] = tested on: SN12C; test: Growth inhibition of human SN12C cells assessed as cell growth at 10^-7 M after 48 hrs by sulforhodamine B assay; conditions: read-out: Activity
[23] = tested on: CAKI-1; test: Growth inhibition of human CAKI-1 cells assessed as cell growth at 10^-6 M after 48 hrs by sulforhodamine B assay; conditions: CAKI-1, 48 h, read-out: Activity
[24] = tested on: MOLT-4; test: Growth inhibition of human MOLT4 cells assessed as cell growth at 10^-6 M after 48 hrs by sulforhodamine B assay; conditions: MOLT-4, 48 h, read-out: Activity
[25] = tested on: UACC-257; test: Growth inhibition of human UACC257 cells assessed as cell growth at 10^-5 M after 48 hrs by sulforhodamine B assay; conditions: UACC-257, 48 h, read-out: Activity
[26] = tested on: A549; test: Growth inhibition of human A549/ATCC cells assessed as cell growth at 10^-5 M after 48 hrs by sulforhodamine B assay; conditions: A549, 48 h, read-out: Activity
[27] = tested on: NCI-H460; test: Growth inhibition of human NCI-H460 cells assessed as cell growth at 10^-7 M after 48 hrs by sulforhodamine B assay; conditions: NCI-H460, 48 h, read-out: Activity
[28] = tested on: Malme-3M; test: Growth inhibition of human MALME-3M cells assessed as cell growth at 10^-7 M after 48 hrs by sulforhodamine B assay; conditions: read-out: Activity
[29] = tested on: HT-29; test: Growth inhibition of human HT-29 cells assessed as cell growth at 10^-8 M after 48 hrs by sulforhodamine B assay; conditions: HT-29, 48 h, read-out: Activity
[30] = tested on: SF-539; test: Growth inhibition of human SF539 cells assessed as cell growth at 10^-8 M after 48 hrs by sulforhodamine B assay; conditions: SF-539, 48 h, read-out: Activity
[31] = tested on: SF-295; test: Growth inhibition of human SF295 cells assessed as cell growth at 10^-7 M after 48 hrs by sulforhodamine B assay; conditions: SF-295, 48 h, read-out: Activity
[32] = tested on: UO-31; test: Growth inhibition of human UO31 cells assessed as cell growth at 10^-6 M after 48 hrs by sulforhodamine B assay; conditions: UO-31, 48 h, read-out: Activity
[33] = tested on: RPMI-8226; test: Growth inhibition of human RPMI8226 cells assessed as cell growth at 10^-4 M after 48 hrs by sulforhodamine B assay; conditions: RPMI-8226, 48 h, read-out: Activity
[34] = tested on: MDA-MB-435; test: Growth inhibition of human MDA-MB-435 cells assessed as cell growth at 10^-7 M after 48 hrs by sulforhodamine B assay; conditions: MDA-MB-435, 48 h, read-out: Activity
[35] = tested on: COLO 205; test: Growth inhibition of human COLO205 cells assessed as cell growth at 10^-4 M after 48 hrs by sulforhodamine B assay; conditions: COLO 205, 48 h, read-out: Activity
[36] = tested on: SK-MEL-28; test: Growth inhibition of human SK-MEL-28 cells assessed as cell growth at 10^-6 M after 48 hrs by sulforhodamine B assay; conditions: SK-MEL-28, 48 h, read-out: Activity
[37] = tested on: NCI-H522; test: Growth inhibition of human NCI-H522 cells assessed as cell growth at 10^-8 M after 48 hrs by sulforhodamine B assay; conditions: NCI-H522, 48 h, read-out: Activity

| Compound | growth at 0.1 µM [1] [%] | growth at 1 µM [2] [%] | growth at 100 µM [3] [%] | growth at 10 µM [4] [%] | growth at 1 µM [5] [%] | growth at 0.01 µM [6] [%] | growth at 0.01 µM [7] [%] | growth at 10 µM [8] [%] | growth at 0.1 µM [9] [%] | growth at 0.1 µM [10] [%] | growth at 100 µM [11] [%] | growth at 100 µM [12] [%] | growth at 0.1 µM [13] [%] | growth at 1 µM [14] [%] | growth at 0.01 µM [15] [%] | growth at 0.1 µM [16] [%] | growth at 0.1 µM [17] [%] | growth at 0.1 µM [18] [%] | growth at 0.1 µM [19] [%] | growth at 0.1 µM [20] [%] | further results |
| --- | --- | --- | --- | --- | --- | --- | --- | --- | --- | --- | --- | --- | --- | --- | --- | --- | --- | --- | --- | --- | --- |
| COc1cc(-c2nn(-c3cccc(NC(=O)c4ccccc4)c3)cc2-c2ccncc2)ccc1Cl | 91 | 37 | 6 | 21 | 63 | 96 | 97 | 7 | 95 | 101 | 3 | -7 | 91 | 17 | 94 | 91 | 97 | 92 | 81 | 91 | growth at 1 µM [21]: 31%; growth at 0.1 µM [22]: 98%; growth at 1 µM [23]: 52%; growth at 1 µM [24]: 41%; growth at 10 µM [25]: 29%; growth at 10 µM [26]: 17%; growth at 0.1 µM [27]: 99%; growth at 0.1 µM [28]: 82%; growth at 0.01 µM [29]: 98%; growth at 0.01 µM [30]: 91%; growth at 0.1 µM [31]: 90%; growth at 1 µM [32]: 42%; growth at 100 µM [33]: 21%; growth at 0.1 µM [34]: 80%; growth at 100 µM [35]: -54%; growth at 1 µM [36]: 60%; growth at 0.01 µM [37]: 91% |
| COc1cc(-c2nn(-c3cccc(NC(=O)c4ccc(N5CCOCC5)c(C(F)(F)F)c4)c3)cc2-c2ccncc2)ccc1Cl | 53 | 35 | -23 | 4 | 47 | 109 | 98 | 1 | 92 | 79 | -5 | -24 | 64 | 18 | 98 | 92 | 81 | 58 | 64 | 68 | growth at 1 µM [21]: 33%; growth at 0.1 µM [22]: 90%; growth at 1 µM [23]: 21%; growth at 1 µM [24]: 38%; growth at 10 µM [25]: -5%; growth at 10 µM [26]: 7%; growth at 0.1 µM [27]: 88%; growth at 0.1 µM [28]: 52%; growth at 0.01 µM [29]: 98%; growth at 0.01 µM [30]: 93%; growth at 0.1 µM [31]: 60%; growth at 1 µM [32]: 33%; growth at 100 µM [33]: 6%; growth at 0.1 µM [34]: -4%; growth at 100 µM [35]: -75%; growth at 1 µM [36]: 56%; growth at 0.01 µM [37]: 97% |
